Laboratory results as given in ChEMBL document CHEMBL3600283, “Enthalpic Forces Correlate with the Selectivity of Transthyretin-Stabilizing Ligands in Human Plasma” (J Med Chem, 2015).

What was measured:
[1] = biological target: T1, Transthyretin (Homo sapiens, UniProt P02766); assay: Binding affinity to TTR (unknown origin) by isothermal titration calorimetric analysis
[2] = biological target: T1, Transthyretin; assay: Binding affinity to TTR in human plasma assessed as protein stabilization preincubated for 1 hr followed by urea-mediated denaturation by Western blot analysis
[3] = Half life in plasma (unknown origin); assay type: ADME, cell-free

Row | SMILES | Kd [1] [µM] | IC50 ([2]; read-out: IC50) [µM] | half-life [3] [h] | IC50 [2] [µM]
1 | Cc1c(Cl)cccc1Nc1ccccc1C(=O)O [TOLFENAMIC ACID] | 0.15 | 40 | – | –
2 | O=c1cc(-c2ccc(O)cc2)oc2cc(O)cc(O)c12 [APIGENIN] | 0.25 | – | – | 18
3 | O=c1cc(-c2ccc(O)c(O)c2)oc2cc(O)cc(O)c12 [LUTEOLIN] | 0.07 | 7 | – | –
4 | Cc1ccc(C)c(OCCCC(C)(C)C(=O)O)c1 [GEMFIBROZIL] | 0.1 | 180 | 1.5 | –

More lines, main results first:

Row | Kd [1] [µM] | IC50 ([2]; read-out: IC50) [µM] | half-life [3] [h] | SMILES | IC50 [2] [µM]
5 | 0.48 | 50 | – | Cc1ccc(Cl)c(Nc2ccccc2C(=O)O)c1Cl [MECLOFENAMIC ACID] | –
6 | 1.2 | 170 | – | O=C(O)COC(=O)Cc1ccccc1Nc1c(Cl)cccc1Cl [ACECLOFENAC] | –
7 | 1 | 140 | – | O=C(O)Cc1ccccc1Nc1c(Cl)cccc1Cl [DICLOFENAC] | –
